Source: patent publication US9757375B2, “Compounds that inhibit human DNA ligases and methods of treating cancer” (University of Maryland, Baltimore, priority 2007, dated 2017)
Read-outs that look alike come from different tables or passages of the source. Marks after values point to notes of the source that are not given here.

What was measured:
MCF10A cells [1] = assay: MTT cell growth assay; type: cell-based, human; settings: Homo sapiens, MCF-10A; sections 'high concentrations (~50 μM)' and 'active in vitro that decreased cell growth'; same figures given in μM elsewhere in Table 6; read-out: IC50 MCF10A (head without unit)
Experimental: (§1) The activity of hits from the initial screen was further validated using the MTT assay. Briefly, MCF10A and HCT116 cells were seeded in 96 well plates at 300 and 1200 cells per well, respectively, and allowed to adhere overnight. The following day, serial dilutions of compounds in media were added to the cells in a final volume 200 μl. After incubation for 5 days, MTT reagent (3-(4,5-dimthylthiazol-2-yl)-2,5-diphenyltatrazolium) was added and incubation was continued for 4 h. Formazan crystals generated by reduction of the MTT reagent in mitochondria were solubilized with isopropanol prior to the measurement of absorbance at 560 nm wavelength in a plate reader.
To extend the results of the […] cell culture screening assay, a subset of compounds were tested in larger cultures. Different concentrations of Compounds 67 and 151 were added to asynchronous subconfluent populations of HCT116 and MCF10A cells. Asynchronous subconfluent populations of HCT116 and MCF10A cells were pre-treated with different concentrations of compound 64 prior to the addition of 3 aminobenzamide (2 mM) MMS (100 μM) or cis-platinum (1 μM). After incubation for 5 days, cell growth was measured by the MTT assay (16).

hLigI = molecular target: T1, hLigI (Homo sapiens, UniProt P18858); assay: High-throughput fluorescence-based DNA joining (ligation) assay; type: biochemical
T1 construct: made in house
T1 sequence (P18858 whole entry): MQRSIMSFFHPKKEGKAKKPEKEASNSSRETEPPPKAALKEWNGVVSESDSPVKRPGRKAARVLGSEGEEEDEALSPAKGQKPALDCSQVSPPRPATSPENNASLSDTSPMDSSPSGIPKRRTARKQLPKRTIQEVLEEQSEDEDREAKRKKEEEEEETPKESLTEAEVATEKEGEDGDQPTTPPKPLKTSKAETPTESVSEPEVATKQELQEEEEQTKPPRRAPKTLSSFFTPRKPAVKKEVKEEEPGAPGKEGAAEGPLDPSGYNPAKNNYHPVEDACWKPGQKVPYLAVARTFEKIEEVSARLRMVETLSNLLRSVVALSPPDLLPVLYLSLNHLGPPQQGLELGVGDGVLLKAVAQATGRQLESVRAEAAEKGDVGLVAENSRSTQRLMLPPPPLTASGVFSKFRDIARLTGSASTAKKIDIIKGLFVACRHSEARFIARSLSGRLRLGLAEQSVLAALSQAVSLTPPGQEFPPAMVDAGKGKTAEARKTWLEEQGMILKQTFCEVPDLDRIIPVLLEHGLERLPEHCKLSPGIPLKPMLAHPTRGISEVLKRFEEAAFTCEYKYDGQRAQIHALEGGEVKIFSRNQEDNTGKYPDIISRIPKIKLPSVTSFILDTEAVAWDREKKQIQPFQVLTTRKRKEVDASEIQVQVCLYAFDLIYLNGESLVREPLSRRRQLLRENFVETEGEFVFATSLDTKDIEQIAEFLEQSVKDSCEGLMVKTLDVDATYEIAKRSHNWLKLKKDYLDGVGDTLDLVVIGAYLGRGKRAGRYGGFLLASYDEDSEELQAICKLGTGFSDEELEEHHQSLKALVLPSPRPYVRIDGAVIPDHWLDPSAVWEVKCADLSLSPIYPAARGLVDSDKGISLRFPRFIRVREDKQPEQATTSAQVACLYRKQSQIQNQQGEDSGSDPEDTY
Experimental: (§2) Candidate ligase inhibitors identified by CADD were assayed for their ability to inhibit hLigI and T4 DNA ligase using a high-throughput, fluorescence energy transfer-based DNA joining assay (22). Duplicate reactions (30 μL) containing 10 pmol of nicked DNA substrate and either 0.25 pmol of hLigI or 10 units of T4 DNA ligase were incubated in the presence or absence of 100 μmol/L of the putative inhibitor. DNA binding by the candidate DNA ligase inhibitors was measured by displacement of ethidium bromide from DNA as previously described (30).
(§3) The method for screening compounds comprises testing the compound for the ability to inhibit human DNA ligases I, III and IV with a high throughput fluorescence-based ligation assay. In this assay, phosphodiester bond formation covalently links together two oligonucleotides, one of which is a fluorescent donor AF488 that is 11 nucleotides from the 3′ terminus and the other contains a fluorescence acceptor and quencher, BHQ1 that is 15 nucleotides from the 5′ terminus. When these oligonucleotides are present in separate duplexes and in the same nicked or intact duplex, there is no significant quenching of fluorescence because the donor and acceptor are too far apart. As single-strands neither the AF488 oligonucleotide nor the BHQ1 oligonucleotides have significant secondary structure. However, when these oligonucleotides are ligated together, the resultant single strand forms a stable hairpin structure, in which the AF488 and BHQ1 groups are very close together, resulting in efficient intra-molecular quenching of fluorescence. Thus, in the DNA joining assay, the DNA substrate is denatured after incubation with the DNA ligase and then renatured in the presence of a 20-fold excess of an oligonucleotide that is identical to the ligated strand containing the fluorescent door and acceptor except that it lacks these modifications. Using this assay, DNA joining, which results in reduced fluorescence at 518 nm, can be measured rapidly, quantitatively and with high-throughput using a fluorescence plate reader.
(§4) Applicants developed a novel high throughput fluorescence-based ligation assay by modifying the sequence of the oligos to optimize hairpin formation by the single strand ligated product of the high throughput fluorescence-based ligation assay of Chen et al (22). […] Compound stock solutions, which were 10 mM in 0.5% DMSO, were diluted in 0.5% DMSO. Human DNA ligases I and III were assayed with a nicked DNA substrate whereas as the substrate for human DNA ligase IV was two oligonucleotide duplexes with short complementary single strand ends.

HCT116 cells [2] = assay: MTT cell growth assay; type: cell-based, human; settings: Homo sapiens, HCT-116
Experimental: as §1
After incubation for 5 days, cell growth was measured by the MTT assay (16).

human DNA ligase III = molecular target: T2, human DNA ligase III (Homo sapiens, UniProt P49916); assay: High-throughput fluorescence-based DNA joining (ligation) assay; type: biochemical
T2 sequence (P49916 1-862 isoform P49916-4): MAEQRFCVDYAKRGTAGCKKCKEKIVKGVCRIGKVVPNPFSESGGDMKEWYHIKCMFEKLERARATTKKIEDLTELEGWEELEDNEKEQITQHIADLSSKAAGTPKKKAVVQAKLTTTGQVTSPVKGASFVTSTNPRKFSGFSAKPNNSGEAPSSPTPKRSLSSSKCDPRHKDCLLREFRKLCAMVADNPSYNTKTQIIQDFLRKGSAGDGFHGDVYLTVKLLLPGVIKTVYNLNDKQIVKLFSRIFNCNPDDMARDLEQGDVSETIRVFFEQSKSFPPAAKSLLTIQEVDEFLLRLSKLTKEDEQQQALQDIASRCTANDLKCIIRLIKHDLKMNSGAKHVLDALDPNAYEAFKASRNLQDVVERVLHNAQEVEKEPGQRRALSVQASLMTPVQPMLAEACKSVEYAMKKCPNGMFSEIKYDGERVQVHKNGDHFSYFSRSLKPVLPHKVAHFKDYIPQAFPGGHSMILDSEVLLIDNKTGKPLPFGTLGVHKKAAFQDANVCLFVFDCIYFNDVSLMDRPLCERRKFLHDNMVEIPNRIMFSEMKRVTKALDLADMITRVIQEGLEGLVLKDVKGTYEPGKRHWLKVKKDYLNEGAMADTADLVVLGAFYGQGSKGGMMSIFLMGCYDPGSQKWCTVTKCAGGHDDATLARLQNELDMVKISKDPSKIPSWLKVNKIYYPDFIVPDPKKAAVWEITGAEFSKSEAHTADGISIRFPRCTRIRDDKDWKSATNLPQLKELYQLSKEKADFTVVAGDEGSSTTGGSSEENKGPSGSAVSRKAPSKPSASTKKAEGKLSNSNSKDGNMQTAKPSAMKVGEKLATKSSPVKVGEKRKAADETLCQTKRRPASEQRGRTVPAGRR
Description: as §3, §4

human DNA ligase IV = human DNA ligase IV (Homo sapiens, UniProt P49917); assay: as above; type: biochemical
Chain of human DNA ligase IV (P49917 whole entry): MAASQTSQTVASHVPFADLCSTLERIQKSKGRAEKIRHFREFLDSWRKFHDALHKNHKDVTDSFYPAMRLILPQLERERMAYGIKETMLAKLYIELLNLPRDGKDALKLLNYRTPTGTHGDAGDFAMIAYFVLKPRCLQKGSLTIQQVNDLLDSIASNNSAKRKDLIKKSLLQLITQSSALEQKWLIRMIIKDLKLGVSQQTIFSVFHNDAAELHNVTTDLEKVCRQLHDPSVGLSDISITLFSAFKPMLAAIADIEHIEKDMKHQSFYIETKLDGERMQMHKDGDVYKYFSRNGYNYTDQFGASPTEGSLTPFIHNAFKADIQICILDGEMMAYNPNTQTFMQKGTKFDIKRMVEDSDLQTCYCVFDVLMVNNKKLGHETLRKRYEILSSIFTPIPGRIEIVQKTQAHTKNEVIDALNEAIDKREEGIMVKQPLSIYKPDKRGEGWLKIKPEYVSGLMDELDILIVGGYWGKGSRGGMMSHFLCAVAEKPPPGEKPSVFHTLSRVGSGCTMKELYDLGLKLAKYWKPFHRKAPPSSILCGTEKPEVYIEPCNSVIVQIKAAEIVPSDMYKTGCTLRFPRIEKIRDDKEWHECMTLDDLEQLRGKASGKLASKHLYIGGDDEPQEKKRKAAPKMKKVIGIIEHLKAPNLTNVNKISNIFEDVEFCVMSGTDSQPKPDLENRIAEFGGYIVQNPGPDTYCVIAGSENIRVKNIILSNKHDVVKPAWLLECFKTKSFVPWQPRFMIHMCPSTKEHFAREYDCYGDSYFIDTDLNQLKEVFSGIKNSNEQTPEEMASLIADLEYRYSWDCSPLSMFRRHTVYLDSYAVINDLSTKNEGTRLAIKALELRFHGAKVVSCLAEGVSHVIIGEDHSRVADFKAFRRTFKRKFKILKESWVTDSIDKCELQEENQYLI
Chain of human DNA ligase IV (Q13426 whole entry partner): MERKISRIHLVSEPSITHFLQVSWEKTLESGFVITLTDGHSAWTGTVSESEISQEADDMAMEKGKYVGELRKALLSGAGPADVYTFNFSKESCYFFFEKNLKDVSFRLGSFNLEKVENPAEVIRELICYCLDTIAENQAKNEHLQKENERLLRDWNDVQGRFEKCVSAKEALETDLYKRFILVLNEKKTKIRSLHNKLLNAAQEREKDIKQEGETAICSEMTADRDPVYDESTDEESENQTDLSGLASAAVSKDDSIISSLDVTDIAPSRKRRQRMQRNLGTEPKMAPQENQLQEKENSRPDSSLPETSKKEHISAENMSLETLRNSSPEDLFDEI
Description: as §3, §4

HCT116 cells [3] = assay: Screen for potentiation of DNA damaging agents (MMS, camptothecin, cis-platinum, 3 aminobenzamide, ionizing radiation); type: cell-based, human; settings: 1 = no sensitization; for MMS: Ratios of IC50 HCT116: compound alone vs combination with MMS (100 μM)
Description: The 192 human DNA ligase inhibitors were screened in parallel for effects on proliferation and the ability to potentiate the effects of several DNA damaging agents using two cell human lines, a colon cancer line HCT116 and a normal breast epithelial cell line MCF10A using a Biomek FX Laboratory Automation Workstation as described (23). The DNA damaging agents used, methyl methanesulfonate (MMS), camptothecin, cis-platinum, 3 aminobenzamide and ionizing radiation, are representatives of classes of agents used to treat cancer. Briefly, HCT116 and MCF10A cells were plated in 96 well plates such that the cultures were about 80% confluent after 5 days incubation. Compounds were added to the cultures at either 15 μM or 50 μM 1 day after plating. After incubation for 3 days, cell lysed in a solution containing 1.2% Igepal CA-630 and SYBR green that stains DNA (1:1000, Molecular Probes, Eugene, Oreg.). Subsequently, fluorescence was measured per well. The studies with DNA damaging agents were performed as follows. […] For ionizing radiation, cells were pre-incubated with the compounds at 50 μM for 1 hour prior to exposure to 2 gray of ionizing radiation. Cultures were incubated for 3 days and then treated as above.

MCF10A cells [4] = assay: as above; type: cell-based, human; settings: compound alone vs combination with 3-AB (2 mM); 1 = no sensitization
Description: The 192 human DNA ligase inhibitors were screened in parallel for effects on proliferation and the ability to potentiate the effects of several DNA damaging agents using two cell human lines, a colon cancer line HCT116 and a normal breast epithelial cell line MCF10A using a Biomek FX Laboratory Automation Workstation as described (23). The DNA damaging agents used, methyl methanesulfonate (MMS), camptothecin, cis-platinum, 3 aminobenzamide and ionizing radiation, are representatives of classes of agents used to treat cancer. Briefly, HCT116 and MCF10A cells were plated in 96 well plates such that the cultures were about 80% confluent after 5 days incubation. Compounds were added to the cultures at either 15 μM or 50 μM 1 day after plating. After incubation for 3 days, cell lysed in a solution containing 1.2% Igepal CA-630 and SYBR green that stains DNA (1:1000, Molecular Probes, Eugene, Oreg.). Subsequently, fluorescence was measured per well. The studies with DNA damaging agents were performed as follows. […] Cultures were incubated for 3 days and then treated as above.

[5] = test system: MCF7, HCT116, HeLa, and MCF10A cells; assay: Survival assay on cell panel (FIG. 9); type: cell-based, human; settings: Homo sapiens; cell line not stated
Description: FIG. 9. […] A, effect of L67 (left) and L189 (right) on the survival of MCF7 (Δ), HCT116 (□), HeLa (⋄), and MCF10A (upsidedown triangle) cells. B, normal breast epithelial MCF10A cells (open symbols) and breast cancer MCF7 cells (filled symbols) in the absence (circles) or presence of 3 μmol/L of L67 (squares) were exposed to increasing concentrations of MMS (left). Normal breast epithelial MCF10A cells (open symbols) and colon cancer HCT116 cells (filled symbols) in the absence (circles) or presence of 20 μmol/L of L189 (squares) were exposed to increasing doses of ionizing radiation (right). C, hLigI (I), hLigIIIα (III), and hLigIV (IV) were detected in extracts (400 μg) of the indicated cell lines by immunoblotting. To control for extract loading β-actin was also detected by immunoblotting.
For survival assays, cells were plated in 6 well plates and grown either in the absence or presence of ligase inhibitors. Where indicated, either MMS (0-50 μM) was added to the medium or the cells were irradiated in a Cs-137 irradiator (0-2.5 Gy). After two weeks, colonies were stained with crystal violet (Sigma) and then counted.

T4 DNA ligase = molecular target: T3, T4 DNA ligase (Enterobacteria phage T4, UniProt P00970); assay: High-throughput fluorescence-based DNA joining assay, non-specific inhibitor control; type: biochemical, bacteriophage T4; settings: 100 μM; read-out: In vitro % inhib T4 100
T3 construct: purchased NEB
T3 sequence (P00970 1-487): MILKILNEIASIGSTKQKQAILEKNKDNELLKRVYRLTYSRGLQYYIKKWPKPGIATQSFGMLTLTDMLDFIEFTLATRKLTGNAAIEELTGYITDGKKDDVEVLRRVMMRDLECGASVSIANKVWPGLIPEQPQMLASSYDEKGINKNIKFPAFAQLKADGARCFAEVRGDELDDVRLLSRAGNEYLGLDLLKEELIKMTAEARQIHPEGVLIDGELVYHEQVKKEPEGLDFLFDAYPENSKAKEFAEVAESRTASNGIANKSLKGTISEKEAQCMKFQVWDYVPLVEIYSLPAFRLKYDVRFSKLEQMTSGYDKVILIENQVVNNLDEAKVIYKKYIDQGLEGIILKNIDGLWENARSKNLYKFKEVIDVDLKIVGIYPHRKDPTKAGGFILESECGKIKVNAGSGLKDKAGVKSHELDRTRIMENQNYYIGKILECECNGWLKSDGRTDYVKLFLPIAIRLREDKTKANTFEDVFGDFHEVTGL
Experimental: as §2
In addition, to identify compounds that may be non-specific inhibitors of DNA joining, the 192 compounds were also assayed for their ability to inhibit bacteriophage T4 DNA ligase, an enzyme that utilizes the same reaction mechanism as hLigI, has similar adenylation and OB-fold domains but lacks a DBD domain. (6) Although this is also an ATP-dependent DNA ligase, it lacks the domain containing the binding pocket targeted by the in silico screen. Compounds that inhibited T4 DNA ligase were eliminated as non-specific inhibitors that most likely bind to the DNA.

[6] = cell growth, compound alone, read-out: IC50 (μM) HCT116
[7] = read-out: % of inhibition @ 100 μM (Helen's data) hLigIII

Compound | IC50 (MCF10A cells [1]) [µM] | inhibition at 100 µM (hLigI; read-out: % of inhibition @ 100 μM (Helen's data) hLigI) [%] | IC50 (HCT116 cells [2]; [6]) [µM] | inhibition at 100 µM (human DNA ligase III; [7]) [%] | inhibition at 100 µM (human DNA ligase IV; read-out: % of inhibition @ 100 μM (Helen's data) hLigIV) [%] | IC50 ratios of non- and 3-AB treated cells HCT116 (HCT116 cells [3]; compound alone vs combination with 3-AB (2 mM)) | MMS: Ratios of IC50 HCT116 (HCT116 cells [3]) | IC50 ratios of non- and 3-AB treated cells MCF10A (MCF10A cells [4]) | inhibition at 100 µM (hLigI; 100 μM, read-out: % of inhibition @ 100 μM (Helen's data) hLigI) [%] | IC50 (HCT116 cells [2]; sections 'high concentrations (~50 μM)' and 'active in vitro that decreased cell growth', same figures given in μM elsewhere in Table 6, read-out: IC50 HCT116 (head without unit)) [µM] | inhibition at 100 µM (human DNA ligase IV; 100 μM, read-out: % of inhibition @ 100 μM (Helen's data) hLigIV) [%] | % activity Inhibition hLigI 100 uM (hLigI; 100 uM) | inhibition at 100 µM (hLigI; 100 μM, read-out: In vitro % inhib hLigI 100) [%] | inhibition at 100 µM (human DNA ligase III; 100 μM, read-out: In vitro % inhib hLigIII 100) [%] | inhibition at 100 µM (human DNA ligase III; 100 uM, Ø not defined (0 in Table 5A), read-out: % activity Inhibition hLigIII 100 uM) [%] | inhibition of human DNA ligase III, in words (human DNA ligase III; in vitro screen) | inhibition at 100 µM (human DNA ligase IV; 100 μM, read-out: In vitro % inhib hLigIV 100) [%] | % activity Inhibition hLigIV 100 uM (human DNA ligase IV; 100 uM, Ø not defined (0 in Table 5A)) | EC50 [5] [µM] | inhibition at 100 µM (T4 DNA ligase) [%]
O=C1NC(=S)NC(=O)C1=NNc1cccc(C(=O)O)c1 [Compound 198] | > 50 | < 20 | > 50 | < 20 | < 20 | 1 | 2** | 2** |  |  |  |  |  |  |  |  |  |  |  | 
O=C(COC(=O)c1ccc2ccccc2c1O)c1cccs1 [Compound 214] | > 50 |  | 10 to 50 | 42 |  |  | ID (2) |  | < 20 | 10 to 50 | 40 |  |  |  |  |  |  |  |  | 
N#Cc1cn(CCCCCCCc2[nH]c(=O)[nH]c(=O)c2C#N)c(=O)[nH]c1=O [Compound 209] |  |  |  |  |  |  |  |  |  |  |  | Ø | 0 | 71 ± 3 | 70.5 ± 2.6 | specific for DNA ligase III | 0 | Ø | > 100 | 0
